Earlier results in publication PMC5613053 (Investigational New Drugs, 2017).

Columns and labels:
MV4–11 cells = conditions: read-out: Concentration inhibiting growth of MV4–11 cells; cited from earlier work
MV4–11-luc cells = test system: MV4–11-luc cells; parameters: method as in PMID 24046014; conditions: maximum tolerated dose; cited from earlier work

For CC1(COc2ccc3c(c2)ncn3-c2ccc3cccc(N4CCC(N)CC4)c3n2)COC1 [crenolanib], the IC50 (MV4–11 cells) is listed as 1.3 nM and the “Efficacy in xenograft model” value (MV4–11-luc cells) is listed as “limited efficacy”.
